Measurements as given in patent US6310095A, “Inhibitors of protein isoprenyl transferases” (University of Pittsburgh, priority 1998, dated 2001).
Structures can show the parent of a compound that is named as a salt.

Biological target: T1, protein farnesyltransferase (Rattus norvegicus, UniProt Q02293+Q04631)
T1 construct: Rat brain protein farnesyltransferase activity is measured; from tissue; host or cells: rat brain; purified according to Reiss et al., Cell 62:81-88 (1990), steps one through three
Test: in vitro inhibition of protein farnesyltransferase (scintillation proximity assay, biotin-K Ras B fragment)
Type: biochemical
Conditions: at 1 × 10^-5 M
Text: The ability of the compounds of the invention to inhibit protein farnesyltransferase or protein geranylgeranyltransferase can be measured according to the method of Moores, et al., J. Biol. Chem. 266: 14603 (1991) or the method of Vogt, et al., J. Biol. Chem. 270:660-664 (1995). In addition, procedures for determination of the inhibition of farnesylation of the oncogene protein Ras are described by Goldstein, et al., J. Biol. Chem., 266:15575-15578 (1991) and by Singh in U.S. Pat. No. 5,245,061.
In addition, in vitro inhibition of protein farnesyltransferase may be measured by the following procedure. Rat brain protein farnesyltransferase activity is measured using an Amersham Life Science commercial scintillation proximity assay kit and substituting a biotin-K Ras B fragment (biotin-[…]CO2 H), 0.1 mM final concentration, for the biotin-lamin substrate provided by Amersham. The enzyme is purified according to Reiss, Y., et al., Cell, 62: 81-88 (1990), utilizing steps one through three.
The % inhibition of protein farnesyltransferase was determined for representative compounds of the invention.

| SMILES | inhibition at 10 µM [%] |
| --- | --- |
| CSCC[C@H](NC(=O)c1ccc(CNCCN2CCCCC2)cc1-c1ccccc1)C(=O)O [Example 366] | 83 |
| CSCC[C@H](NC(=O)c1ccc(CNCCc2cccs2)cc1-c1ccccc1)C(=O)O [Example 369] | 87 |
| CSCC[C@H](NC(=O)c1ccc(CNc2cc[nH]n2)cc1-c1ccccc1)C(=O)O [Example 370] | 86 |
| CSCC[C@H](NC(=O)c1ccc(CNc2nnc(C)s2)cc1-c1ccccc1)C(=O)O [Example 371] | 66 |
| CSCC[C@H](NC(=O)c1ccc(CNc2cc(C)on2)cc1-c1ccccc1)C(=O)O [Example 372] | 69 |

Further lines, results first:

| inhibition at 10 µM [%] | SMILES |
| --- | --- |
| 69 | CCn1cc(NCc2ccc(C(=O)N[C@@H](CCSC)C(=O)O)c(-c3ccccc3)c2)c(=O)n1CC [Example 364] |
| 97 | CSCC[C@H](NC(=O)c1ccc(CNCCN2CCOCC2)cc1-c1ccccc1)C(=O)O [Example 365] |

Same assay, conditions: at 1 × 10^-6 M

| SMILES | % inhibition of farnesyltransferase [%] |
| --- | --- |
| CSCC[C@H](NC(=O)c1ccc(COCc2cccs2)cc1-c1ccccc1C)C(=O)[O-].[Li+] [Example 273] | 96 |
| CSCC[C@H](NC(=O)c1ccc(COCc2ccsc2)cc1-c1ccccc1C)C(=O)[O-].[Li+] [Example 274] | 94 |
| CSCC[C@H](NC(=O)c1ccc(COCC2CCCO2)cc1-c1ccccc1)C(=O)O (stereo partly shown) [Example 288] | 22 |
| CCCCN(C)N(CCC1CCCCC1)Cc1ccc(C(=O)N[C@@H](CCS(C)(=O)=O)C(=O)O)c(-c2ccccc2C)c1 [Example 300] | 22 |
| CSCC[C@H](NC(=O)c1ccc(CN(C)C(CC2CCCCC2)C(=O)N2CCCCC2)cc1-c1ccccc1C)C(=O)O (stereo partly shown) [Example 301] | 98 |
| CSCC[C@H](NC(=O)c1ccc(CNC(C)(C)CC2CCCCC2)cc1-c1ccccc1C)C(=O)O [Example 308] | 62 |
| CSCC[C@H](NC(=O)c1ccc(CN(C)C(C)(C)Cc2ccccc2)cc1-c1ccccc1C)C(=O)O [Example 309] | 98 |
| Cc1ccccc1-c1cc(CNC(C)(C)Cc2ccccc2)ccc1C(=O)N[C@@H](CCS(C)(=O)=O)C(=O)O [Example 311] | 97 |
| Cc1ccccc1-c1cc(CN(C)C(C)(C)CC2CCCCC2)ccc1C(=O)N[C@@H](CCS(C)(=O)=O)C(=O)O [Example 314] | 97 |
| CSCC[C@H](NC(=O)c1ccc(CN(C2CC2)C(C)(C)Cc2ccccc2)cc1-c1ccccc1C)C(=O)O [Example 315] | 93 |
| CSCC[C@H](NC(=O)c1ccc(CN(C2CC2)C(C)(C)CC2CCCCC2)cc1-c1ccccc1C)C(=O)O [Example 316] | 63 |
| CSCC[C@H](NC(=O)c1ccc(CN(C(C)C)C(C)(C)CC2CCCCC2)cc1-c1ccccc1C)C(=O)O [Example 318] | 98 |
| CSCC[C@H](NC(=O)c1ccc(CN(C2CC2)C2(CC3CCCCC3)CC2)cc1-c1ccccc1C)C(=O)O [Example 324] | 98 |
| CSCC[C@H](NC(=O)c1ccc(CN(C(C)C)C2(CC3CCCCC3)CC2)cc1-c1ccccc1C)C(=O)O [Example 326] | 91 |
| CSCC[C@H](NC(=O)c1ccc(CN(C2CC2)C2(CC3CCCCC3)CCC2)cc1-c1ccccc1C)C(=O)O [Example 330] | 98 |
| CSCC[C@H](NC(=O)c1ccc(CN(C(C)C)C2(Cc3ccccc3)CCC2)cc1-c1ccccc1C)C(=O)O [Example 331] | 98 |
| CSCC[C@H](NC(=O)c1ccc(CN(C(C)C)C2(CC3CCCCC3)CCC2)cc1-c1ccccc1C)C(=O)O [Example 332] | 26 |
| Cc1ccccc1-c1cc(CN(C2CC2)C2(Cc3ccccc3)CCC2)ccc1C(=O)N[C@@H](CCS(C)(=O)=O)C(=O)O [Example 333] | 99 |
| Cc1ccccc1-c1cc(CN(C2CC2)C2(CC3CCCCC3)CCC2)ccc1C(=O)N[C@@H](CCS(C)(=O)=O)C(=O)O [Example 334] | 93 |
| CSCC[C@H](NC(=O)c1ccc(CN(C(C)C)C2(Cc3ccccc3)CCCC2)cc1-c1ccccc1C)C(=O)O [Example 343] | 72 |
| CSCC[C@H](NC(=O)c1ccc(CN2C(=O)OC[C@@H]2CC2CCCCC2)cc1-c1ccccc1C)C(=O)O [Example 349] | 99 |

Other lines, results leading:

| % inhibition of farnesyltransferase [%] | SMILES |
| --- | --- |
| 41 | CSCC[C@H](NC(=O)c1ccc(N2CC(=O)NNC2=O)cc1-c1ccccc1)C(=O)O [Example 224] |
| 24 | CSCC[C@H](NC(=O)c1ccc(COCC2CCOC2)cc1-c1ccccc1)C(=O)O (stereo partly shown) [Example 287] |
| 43 | CCCCON(CCC1CCCCC1)Cc1ccc(C(=O)N[C@@H](CCS(C)(=O)=O)C(=O)O)c(-c2ccccc2C)c1 [Example 298] |
| 82 | CSCC[C@H](NC(=O)c1ccc(CNC(C)(C)Cc2ccccc2)cc1-c1ccccc1C)C(=O)O [Example 307] |
| 94 | Cc1ccccc1-c1cc(CN(C)C(C)(C)Cc2ccccc2)ccc1C(=O)N[C@@H](CCS(C)(=O)=O)C(=O)O [Example 313] |
| 54 | CSCC[C@H](NC(=O)c1ccc(CN(C(C)C)C(C)(C)Cc2ccccc2)cc1-c1ccccc1C)C(=O)O [Example 317] |
| 98 | Cc1ccccc1-c1cc(CN(C2CC2)C(C)(C)Cc2ccccc2)ccc1C(=O)N[C@@H](CCS(C)(=O)=O)C(=O)O [Example 319] |
| 93 | Cc1ccccc1-c1cc(CN(C2CC2)C(C)(C)CC2CCCCC2)ccc1C(=O)N[C@@H](CCS(C)(=O)=O)C(=O)O [Example 320] |
| 99 | CSCC[C@H](NC(=O)c1ccc(CN(C(C)C)C2(Cc3ccccc3)CC2)cc1-c1ccccc1C)C(=O)O [Example 325] |
| 98 | CSCC[C@H](NC(=O)c1ccc(CN(C2CC2)C2(Cc3ccccc3)CCC2)cc1-c1ccccc1C)C(=O)O [Example 329] |
| 95 | CSCC[C@H](NC(=O)c1ccc(CN(C(C)C)C2(CC3CCCCC3)CCCC2)cc1-c1ccccc1C)C(=O)O [Example 344] |
| 91 | Cc1ccccc1-c1cc(CN(C2CC2)C2(Cc3ccccc3)CCCC2)ccc1C(=O)N[C@@H](CCS(C)(=O)=O)C(=O)O [Example 345] |
| 98 | Cc1ccccc1-c1cc(CN(C2CC2)C2(CC3CCCCC3)CCCC2)ccc1C(=O)N[C@@H](CCS(C)(=O)=O)C(=O)O [Example 346] |

Same assay, conditions: at 1 × 10^-6 M; read-out: % inhibition of farnesyltransferase

| SMILES | inhibition at 1 µM [%] |
| --- | --- |
| CSCCC(NC(=O)c1ccc(NC(=O)Cc2cscn2)cc1-c1ccccc1)C(=O)O (stereo not shown) [Example 162, [4-(thiazo-4-ylmethylcarbonyl)amino-2-phenylbenzoyl]methionine] | 12 |
| CSCC[C@H](NC(=O)c1ccc(NC(=O)Cc2nccs2)cc1-c1ccccc1)C(=O)O [Example 163, [4-(thiazol-2-ylmethylcarbonyl)amino-2-phenylbenzoyl]methionine] | 18 |
| CSCC[C@H](NC(=O)c1ccc(NC[C@@H]2CSCN2)cc1-c1ccccc1)C(=O)O [Example 166, [4-((R)-thiazolidin-4-ylmethyl)amino-2-phenylbenzoyl]methionine hydrochloride] | 97 |
| CSCC[C@H](NC(=O)c1ccc(NC(=O)C2CCC(=O)N2)cc1-c1ccccc1)C(=O)O (stereo partly shown) [Example 202, [4-(2-pyrrolidinone-5-ylcarbonylamino)-2-phenylbenzoyl]methionine] | 31 |
| CSCCC(NC(=O)c1ccc(NC(=O)c2cncnc2)cc1-c1ccccc1)C(=O)O (stereo not shown) [Example 219, [4-(5-pyrimidylcarboxyamino)-2-phenylbenzoyl]methionine] | 56 |
| CSCCC(NC(=O)c1ccc(NC(=O)C2CCCNC2)cc1-c1ccccc1)C(=O)O (stereo not shown) [Example 231, [4-(3-piperidinecarboxyamino)-2-phenylbenzoyl]methionine hydrochloride] | 50 |

Continued, values first:

| inhibition at 1 µM [%] | SMILES |
| --- | --- |
| 92 | COC(=O)[C@H](CCSC)NC(=O)c1ccc(NC(=O)[C@@H]2CSCN2)cc1-c1ccccc1 [Example 164, [4-((R)-thiazolidin-4-ylcarbonyl)amino-2-phenylbenzoyl]methionine methyl ester hydrochloride] |
| 74 | CSCC[C@H](NC(=O)c1ccc(NC(=O)[C@@H]2CSCN2)cc1-c1ccccc1)C(=O)O [Example 165, [4-((R)-thiazolidin-4-ylcarbonyl)amino-2-phenylbenzoyl]methionine] |
| 84 | CSCC[C@H](NC(=O)c1ccc(NCC2CNCCN2)cc1-c1ccccc1)C(=O)O (stereo partly shown) [Example 286, [4-(2-piperazinylmethylamino)-2-phenylbenzoyl]methionine] |

Same assay, conditions: read-out: % inhibition of farnesyltransferase

| SMILES | inhibition at 1 µM [%] |
| --- | --- |
| CSCC[C@H](NC(=O)c1ccc(NC(=O)C2=C(C(F)(F)F)C=CNC2)cc1-c1ccccc1)C(=O)O [Example 283, [4-(1H-4-trifluoromethyl-1,2-dihydropyrid-3-ylcarbonylamino)-2-phenylbenzoyl]methionine sodium salt] | 98 |
| CSCC[C@H](NC(=O)c1ccc(CNCc2ccco2)cc1-c1ccccc1)C(=O)O [Example 302, [4-(2-furylmethylaminomethyl)-2-phenylbenzoyl]methionine lithium salt] | 31 |
